Like-named read-outs stand apart in the source and are kept apart here.

24 compounds from patent publication US8222247B2, “Modulators of glucocorticoid receptor, AP-1, and/or NF-kappabeta activity and use thereof” (Bristol-Myers Squibb Company, priority 2006, dated 2012) can be followed below.

In this assay the test system is AP-1 induced transcriptional activity. The assay can be described thus: Cellular Transrepressional Assay (AP-1 luciferase reporter in A549 cell, PMA activated). The following applies: pAP-1-Luc; for Emax / AP-1 Max % inh (Cellular Transrepression Assay): maximum inhibition, PMA; for Emax: read-out: AP-1 Max % inh (Cellular Transrepression Assay); for EC50: 10 ng/ml PMA, 7 hours, read-out: AP-1 EC50, nM (Cellular Transrepression Assay). The assay is classed as cell-based. The method, then:
Cellular Transrepressional Assay
To measure the ability of test molecules to inhibit AP-1 induced transcriptional activity we utilized an A549 cell which was stably transfected with a plasmid containing 7×AP-1 DNA binding sites (pAP-1-Luc plasmid, Stratagene Co. La Jolla, Calif.) followed by the gene for luciferase. Cells were activated with 10 ng/ml of phorbol myristic acid (PMA) plus or minus test molecules for 7 hours. After 7 hours a luciferase reagent was added to measure luciferase enzymatic activity in the cell. After a 10 minute incubation of luciferase reagent with cells, luminescence was measured in a TopCount luminescence counter. Repression of AP-1 activity was calculated as the percentage decrease in the signal induced by PMA alone. Test molecules were analyzed in the concentration range from 0.1 nM to 40 μM. EC50s were determined by using standard curve fitting methods such as Excel fit (Microsoft Co.). An EC50 is the test molecule concentration at which there is a 50% repression of the maximal inhibition of transcription, i.e. a 50% reduction of AP-1 activity.

As for `CC(C)(C(=O)Nc1nncs1)C(c1cccc(F)c1)c1ccc(-c2ccc(C(=O)N3CCCC3)cc2)s1` (stereo not drawn) [Example 41, 3-(3-fluorophenyl)-2,2-dimethyl-3-(5-(4-(1-pyrrolidinylcarbonyl)phenyl)-2-thienyl)-N-1,3,4-thiadiazol-2-ylpropanamide], where the note is “Homo sapiens, A549, 7 h”, the Emax came out at 65.5% and the EC50 is 6.5 nM.
For the compound `CN(C)C(=O)c1ccc(-c2ccc(C(c3cccc(F)c3)C(C)(C)C(=O)Nc3nccs3)s2)cc1` (stereo not drawn) [Example 42, 4-(5-(1-(3-Fluorophenyl)-2,2-dimethyl-3-oxo-3-(1,3-thiazol-2-ylamino)propyl)-2-thienyl)-N,N-dimethylbenzamide], for the setting “Homo sapiens, A549, 7 h”, the Emax worked out at 42.9% and the concentration for a half-maximal effect (EC50) was 11.6 nM.
Regarding `CN(C)C(=O)c1ccc(-c2ccc(C(c3ccccc3)C(C)(C)C(=O)Nc3nncs3)s2)cc1Cl` (stereo not drawn) [Example 43, 2-Chloro-4-(5-(2,2-dimethyl-3-oxo-1-phenyl-3-(1,3,4-thiadiazol-2-ylamino)propyl)-2-thienyl)-N,N-dimethylbenzamide], the half-maximal effective concentration (EC50) stood at 10.7 nM. In addition, for the setting “Homo sapiens, A549, 7 h”, the Emax worked out at 38.4%.
Turning to `CC(C)(C(=O)Nc1nncs1)C(c1ccccc1)c1ccc(-c2ccc(C(=O)N3CCOCC3)cc2)s1` (stereo not drawn) [Example 45, 2,2-dimethyl-3-(5-(4-(4-morpholinylcarbonyl)phenyl)-2-thienyl)-3-phenyl-N-1,3,4-thiadiazol-2-ylpropanamide], under “Homo sapiens, A549, 7 h”, the Emax came to 51% and the concentration giving a half-maximal response (EC50) was 5.88 nM.
`CC(C)(C(=O)Nc1nncs1)C(c1ccccc1)c1ccc(-c2ccc(C(=O)N3CCCC3)cc2)s1` (stereo not drawn) [Example 47, 2,2-dimethyl-3-phenyl-3-(5-(4-(1-pyrrolidinylcarbonyl)phenyl)-2-thienyl)-N-1,3,4-thiadiazol-2-ylpropanamide]: under “Homo sapiens, A549, 7 h”, the Emax came to 39.9% and the concentration giving a half-maximal response (EC50) was determined as 3.71 nM.
`CCN(C)C(=O)c1ccc(-c2ccc(C(c3ccccc3)C(C)(C)C(=O)Nc3nncs3)s2)cc1` (stereo not drawn) [Example 50, 4-(5-(2,2-dimethyl-3-oxo-1-phenyl-3-(1,3,4-thiadiazol-2-ylamino)propyl)-2-thienyl)-N-ethyl-N-methylbenzamide]: for the setting “Homo sapiens, A549, 7 h”, the Emax was 39.6% and the half-maximal effective concentration (EC50) was determined as 13.2 nM.
For the compound `CC(C)(C(=O)Nc1nncs1)C(c1ccccc1)c1ccc(-c2ccc(C(=O)N3CCOCC3)c(Cl)c2)s1` (stereo not drawn) [Example 52, 3-(5-(3-chloro-4-(4-morpholinylcarbonyl)phenyl)-2-thienyl)-2,2-dimethyl-3-phenyl-N-1,3,4-thiadiazol-2-ylpropanamide], under “Homo sapiens, A549, 7 h”, the Emax was 38.5% and the concentration for a half-maximal effect (EC50) amounted to 12.1 nM.
The like results for `CN(C)C(=O)c1ccc(-c2ccc(C(c3ccccc3)C(C)(C)C(=O)Nc3nccs3)s2)cc1` (stereo not drawn) [Example 54, 4-(5-(2,2-Dimethyl-3-oxo-1-phenyl-3-(1,3-thiazol-2-ylamino)propyl)-2-thienyl)-N,N-dimethylbenzamide] were, in that order, 62.4% and 9.45 nM.
Taken in the same sequence, the figures for `CC(C)(C(=O)Nc1nncs1)[C@@H](c1cccc(F)c1)c1ccc(-c2ccc(C(=O)N3CCOCC3)cc2)s1` [Example 64, (3R)-3-(3-Fluorophenyl)-2,2-dimethyl-3-(5-(4-(4-morpholinylcarbonyl)phenyl)-2-thienyl)-N-1,3,4-thiadiazol-2-ylpropanamide] were 53.8% and 3.04 nM.
As for `CN(C)C(=O)c1ccc(-c2ccc([C@H](c3cccc(F)c3)C(C)(C)C(=O)Nc3nncs3)s2)cc1` [Example 65, 4-(5-((1R)-1-(3-fluorophenyl)-2,2-dimethyl-3-oxo-3-(1,3,4-thiadiazol-2-ylamino)propyl)-2-thienyl)-N,N-dimethylbenzamide], where the note is “Homo sapiens, A549, 7 h”, the Emax amounted to 49.6% and the concentration for a half-maximal effect (EC50) was determined as 7 nM.
The like results for `CN(C)C(=O)c1ccc(-c2ccc([C@H](c3cccc(F)c3)C(C)(C)C(=O)Nc3nncs3)s2)cc1Cl` [Example 66, 2-chloro-4-(5-((1R)-1-(3-fluorophenyl)-2,2-dimethyl-3-oxo-3-(1,3,4-thiadiazol-2-ylamino)propyl)-2-thienyl)-N,N-dimethylbenzamide] were, in that order, 50.4% and 5.16 nM.
Take `CC(C)(C(=O)Nc1nncs1)[C@@H](c1cccc(F)c1)c1ccc(-c2ccc(C(=O)N3CCOCC3)c(Cl)c2)s1` [Example 67, (3R)-3-(5-(3-chloro-4-(4-morpholinylcarbonyl)phenyl)-2-thienyl)-3-(3-fluorophenyl)-2,2-dimethyl-N-1,3,4-thiadiazol-2-ylpropanamide]: under “Homo sapiens, A549, 7 h”, the Emax came out at 51.2% and the half-maximal effective concentration (EC50) was found to be 12.8 nM.
As to `CCN(C)C(=O)c1ccc(-c2ccc([C@H](c3cccc(F)c3)C(C)(C)C(=O)Nc3nncs3)s2)cc1` [Example 68, N-ethyl-4-(5-((1R)-1-(3-fluorophenyl)-2,2-dimethyl-3-oxo-3-(1,3,4-thiadiazol-2-ylamino)propyl)-2-thienyl)-N-methylbenzamide], under “Homo sapiens, A549, 7 h”, the Emax came out at 49.4% and the EC50 is 7.31 nM.
For `CCN(CC)C(=O)c1ccc(-c2ccc([C@H](c3cccc(F)c3)C(C)(C)C(=O)Nc3nncs3)s2)cc1Cl` [Example 70, 2-chloro-N,N-diethyl-4-(5-((1R)-1-(3-fluorophenyl)-2,2-dimethyl-3-oxo-3-(1,3,4-thiadiazol-2-ylamino)propyl)-2-thienyl)benzamide], for the setting “Homo sapiens, A549, 7 h”, the Emax was determined as 23% and the concentration for a half-maximal effect (EC50) turned out to be 833 nM.
For `CC(C)(C(=O)Nc1nncs1)[C@@H](c1cccc(F)c1)c1ccc(-c2ccc(C(=O)N3CCC(F)(F)C3)cc2)s1` [Example 79, (3R)-3-(5-(4-((3,3-difluoro-1-pyrrolidinyl)carbonyl)phenyl)-2-thienyl)-3-(3-fluorophenyl)-2,2-dimethyl-N-1,3,4-thiadiazol-2-ylpropanamide], where the note is “Homo sapiens, A549, 7 h”, the Emax worked out at 42.6% and the EC50 was determined as 30.3 nM.
As for `CCN(C)C(=O)c1ccc(-c2ccc([C@H](c3cccc(F)c3)C(C)(C)C(=O)Nc3nncs3)s2)cc1F` [Example 80, N-ethyl-2-fluoro-4-(5-((1R)-1-(3-fluorophenyl)-2,2-dimethyl-3-oxo-3-(1,3,4-thiadiazol-2-ylamino)propyl)-2-thienyl)-N-methylbenzamide], where the note is “Homo sapiens, A549, 7 h”, the Emax was 33.6% and the EC50 came out at 34.7 nM.
For `CC(C)(C(=O)Nc1nncs1)[C@@H](c1cccc(F)c1)c1ccc(-c2ccc(C(=O)N3CCOCC3)c(F)c2)s1` [Example 83, (3R)-3-(5-(3-Fluoro-4-(4-morpholinylcarbonyl)phenyl)-2-thienyl)-3-(3-fluorophenyl)-2,2-dimethyl-N-1,3,4-thiadiazol-2-ylpropanamide], for the setting “Homo sapiens, A549, 7 h”, the Emax is 32.7% and the 50% effective concentration (EC50) was 16.6 nM.
Regarding `CN(C)C(=O)c1ccc(-c2ccc(C(c3ccccc3)C(C)(C)C(=O)Nc3nncs3)s2)cc1Cl` (stereo not drawn) [Example 86, 2-chloro-4-(5-(2,2-dimethyl-3-oxo-1-phenyl-3-(1,3,4-thiadiazol-2-ylamino)propyl)-2-thienyl)-N,N-dimethylbenzamide], the “AP-1 Max % inh (Cellular Transrepression Assay)” value came to 36.20 % inh and the EC50 was found to be 53.9 nM.
With `CN(C)C(=O)c1ccc(-c2ccc(C(c3ccccc3)C(C)(C)C(=O)Nc3nncs3)s2)cc1` (stereo not drawn) [Example 87, 4-(5-(2,2-dimethyl-3-oxo-1-phenyl-3-(1,3,4-thiadiazol-2-ylamino)propyl)-2-thienyl)-N,N-dimethylbenzamide], for the setting “Homo sapiens, A549, 7 h”, the Emax was 41.1% and the concentration for a half-maximal effect (EC50) came out at 8.49 nM.
Turning to `CCN(C)C(=O)c1ccc(-c2ccc(C(c3ccccc3)C(C)(C)C(=O)Nc3nncs3)s2)cc1` (stereo not drawn) [Example 88, 4-(5-(2,2-dimethyl-3-oxo-1-phenyl-3-(1,3,4-thiadiazol-2-ylamino)propyl)-2-thienyl)-N-ethyl-N-methylbenzamide], the “AP-1 Max % inh (Cellular Transrepression Assay)” value worked out at 43.56 % inh and the concentration for a half-maximal effect (EC50) stood at 15.7 nM.
As to `CC(C)(C(=O)Nc1nncs1)C(c1cc(F)cc(F)c1)c1ccc(-c2ccc(C(=O)N3CCOCC3)cc2)s1` (stereo not drawn) [Example 89, 3-(3,5-difluorophenyl)-2,2-dimethyl-3-(5-(4-(4-morpholinylcarbonyl)phenyl)-2-thienyl)-N-1,3,4-thiadiazol-2-ylpropanamide], under “Homo sapiens, A549, 7 h”, the Emax amounted to 36.7% and the concentration giving a half-maximal response (EC50) is 2.41 nM.
The like results for `CN(C)C(=O)c1ccc(-c2ccc(C(c3cc(F)cc(F)c3)C(C)(C)C(=O)Nc3nncs3)s2)cc1` (stereo not drawn) [Example 90, 4-(5-(1-(3,5-difluorophenyl)-2,2-dimethyl-3-oxo-3-(1,3,4-thiadiazol-2-ylamino)propyl)-2-thienyl)-N,N-dimethylbenzamide] were, in that order, 32.7% and 20.6 nM.
Taken in the same sequence, the figures for `C[C@@H](C(=O)Nc1nncs1)[C@@H](c1cccc(F)c1)c1ccc(Br)s1` [Example 96, (2R,3S)-3-(5-bromo-2-thienyl)-3-(3-fluorophenyl)-2-methyl-N-1,3,4-thiadiazol-2-ylpropanamide] were 27.4% and 71.1 nM.
Taken in the same sequence, the figures for `CCN(C)C(=O)c1ccc(-c2ccc([C@@H](c3cccc(F)c3)[C@@H](C)C(=O)Nc3nncs3)s2)cc1` [Example 107, N-ethyl-4-(5-((1R,2R)-1-(3-fluorophenyl)-2-methyl-3-oxo-3-(1,3,4-thiadiazol-2-ylamino)propyl)-2-thienyl)-N-methylbenzamide] were 52.5% and 15.9 nM.
